Experimental data published in patent US20260169011A1, “METHODS AND COMPOSITIONS FOR PROVIDING CUSTOMIZED NUTRITIONAL SUPPLEMENTS” (Vibrant Holdings LLC, priority 2023, published 2026).
Where two headings read alike, the source gives them in different places. Each block holds one compound with its values, some of them ahead of it.

Tests used:
[1] = Vibrant Absorption Factor (VAF): difference of post- and pre-supplementation nutrient values divided by ATB dosage
From the text: Improvement in nutrition can be determined by comparing the nutrient values in serum, RBC, and WBCs post-nutritional supplementation to the nutrient values in serum, RBC, and WBCs pre-nutritional supplementation. Based on the improvement, the change in the nutrient levels can be attributed to the per milligram dosage of the supplemented nutrients. The assessed nutritional change is the “Vibrant Absorption factor (VAF (see Equation (1) below). The VAF can be used to determine the subject's utilization of the supplemented nutrients, as determined by the difference in extracellular and intracellular nutrient values before and after supplementation. Based on the subject's utility or absorption of the nutrients, the dosage amount of the nutrient needed to be supplemented or increased to effect change of the subject's nutrient values into the optimum nutrient zone can be assessed. In various embodiments, the VAF is determined by administering a pre-determined formulation, referred to herein as the Absorption Testing Blend.
Next, the ATB is administered to the individual for a predefined period at step 320a, after which nutrient levels and the genetic nutrient profile are re-evaluated, to obtain the post-supplementation biomarker values at step 330.
This includes determining the VAF based on the difference between post- and pre-supplementation biomarker values, which is divided by the ATB dosage.
The assessed change is called the VAF. The VAF is used to understand how the individual's body is utilizing these nutrients, depending on the difference in extracellular and intracellular nutrient values before and after supplementation. Based on the body's utility or absorption of the nutrients, the amount of nutrients needed to be supplemented to alter the individual's nutrient values into the optimum nutrient zone is understood. The VAF calculations help in determining the appropriate dosages of nutrients required in the ‘customized blend.’

[2] = NutriPro test: serum, RBC and WBC nutrient values before and after ATB / customized blend; format: in vivo, human; conditions: for Actual Nutrient Value (ANV): before customized blend; for concentration at 3 months: read-out: Follow-up Nutrient Level; for Pre-test biomarker level: before ATB
From the text: The method for providing a nutritional supplement for a subject as disclosed herein is based on a comprehensive panel that assesses intracellular and extracellular levels of at least or up to 41 nutrients. […] Blood analysis using the method disclosed herein tests for nutrient levels in serum, red blood cells (RBCs), and white blood cells (WBCs). Additional genetic testing can assess patients' predispositions toward nutrient deficiencies. Based on the blood and genetic analysis results, a subsequent supplementation diet comprising supplements and food sources can be designed and implemented. The subject can be a human subject.
In some embodiments, the detection method is mass spectrometry.
The ‘NutriPro’ test is used to assess serum (extracellular), RBC, and WBC (intracellular) nutrient values along with genetic testing for any predispositions with could be affecting nutrient values in the body. If required, additional tests such as the gut zoomer, cardiovascular health, thyroid test, kidney function test, liver function test, etc, are carried out. FIG. 1 provides a schematic diagram of the process of the NutriPro test from the individual subject to the creation of customized nutritional blends.
The ATB is given to the individual for nutritional supplementation, and blood testing for nutrients in serum, RBC, and WBC is carried out after 3 or 6 months.
The assessed change is called the VAF.
After testing, the individual takes the ATB or the customized blend for the amount of time indicated.

[3] = cited from earlier work
[4] = person one, level: Questionnaire
[5] = human, in vivo, Level: Questionnaire, person, after customized blend
[6] = person one, serum, after customized blend
[7] = person three, serum, after customized blend
[8] = person two, serum, after customized blend

VAF [1, 4]: 2.7
Actual Nutrient Value (ANV) ([2]; Level: Questionnaire, person): 84 nmol/mL
concentration at 3 months [2, 5]: 89.5 µM
Follow-up Biomarker level ([2]; male, human, in vivo): 234 nmol/mL
Post-test biomarker level ([2]; male, human, in vivo): 162 nmol/mL
Pre-test biomarker level [2, 4]: 135 nmol/mL
Compound: N=C(N)NCCC[C@H](N)C(=O)O [Arginine]

Compound: [44Ca] [Calcium, Ca 44]
UTL ([3]; upper tolerable limit): 2,500 mg/day

VAF ([1]; person one, serum): 1.08
Post-test biomarker level ([2]; person one, serum, after ATB): 14.9 nmol/mL
Follow-up Biomarker level [2, 6]: 42.5 nmol/mL
Pre-test biomarker level ([2]; person one, serum): 9.5 nmol/mL
Follow-up Nutrient Level ([2]; person three, level: Questionnaire, after customized blend): 43.2 nmol/mL
Actual Nutrient Value (ANV) ([2]; person three, level: Questionnaire): 24 nmol/mL
Compound: C[N+](C)(C)CC(O)CC(=O)[O-] (centres unmarked) [Carnitine]
UTL ([3]; Table 18, person one): 2000 mg/day
UTL ([3]; Table 20, person three): 2000 mg/day

Compound: C[N+](C)(C)CCO [Choline]
UTL ([3]; upper tolerable limit): 3,500 mg/day

Compound: [Cr] [Chromium]
Follow-up Nutrient Level [2, 7]: 0.277 ng/mL
Actual Nutrient Value (ANV) ([2]; person three, serum): 0.133 ng/mL

VAF ([1]; person two, serum): 0.76
Actual Nutrient Value (ANV) ([2]; Level: Questionnaire, person): 19.2 nmol/mL
concentration at 3 months [2, 5]: 24.9 µM
Post-test biomarker level ([2]; person two, serum, after ATB): 16.7 nmol/mL
Follow-up Biomarker level [2, 8]: 43.4 nmol/mL
Pre-test biomarker level ([2]; person two, serum): 9.1 nmol/mL
Compound: NC(=O)NCCC[C@H](N)C(=O)O [Citrulline]

Compound: COC1=C(OC)C(=O)C(C/C=C(\C)CC/C=C(\C)CC/C=C(\C)CC/C=C(\C)CC/C=C(\C)CC/C=C(\C)CC/C=C(\C)CC/C=C(\C)CC/C=C(\C)CCC=C(C)C)=C(C)C1=O [Coenzyme 10]
VAF ([1]; person one, serum): 0.024
VAF ([1]; person two, serum): 0.22
Post-test biomarker level ([2]; person one, serum, after ATB): 0.32 µg/mL
Follow-up Biomarker level [2, 6]: 1.8 µg/mL
Pre-test biomarker level ([2]; person one, serum): 0.2 µg/mL
Post-test biomarker level ([2]; person two, serum, after ATB): 1.2 µg/mL
Follow-up Biomarker level [2, 8]: 1.88 µg/mL
Pre-test biomarker level ([2]; person two, serum): 0.1 µg/mL
UTL ([3]; Table 18, person one): 1,200 mg/day
UTL ([3]; Table 19, person two): 1,200 mg/day

Compound: COC1=C(OC)C(=O)C(C/C=C(\C)CC/C=C(\C)CC/C=C(\C)CC/C=C(\C)CC/C=C(\C)CC/C=C(\C)CC/C=C(\C)CC/C=C(\C)CC/C=C(\C)CCC=C(C)C)=C(C)C1=O [Coenzyme Q10]
Follow-up Nutrient Level [2, 7]: 1990 ng/mL
Actual Nutrient Value (ANV) ([2]; person three, serum): 100 ng/mL
UTL ([3]; Table 20, person three): 1,200 mg/day

Compound: [Cu] [Copper, Cu 63]
UTL ([3]; upper tolerable limit): 10 mg/day

Follow-up Nutrient Level ([2]; person three, cells, after customized blend, unit not given): 1.2
Actual Nutrient Value (ANV) ([2]; person three, cells, unit not given): 0.46
Compound: CC/C=C\C/C=C\C/C=C\C/C=C\C/C=C\CCCCCC(=O)O [DPA, docosapentaenoic acid]

Compound: C[N+](C)(C)C[C@H](O)CC(=O)[O-] [Free Carnitine]
UTL ([3]; upper tolerable limit): 2000 mg/day

Compound: [Fe] [Iron, Fe 56]
UTL ([3]; upper tolerable limit): 45 mg/day

Compound: CC[C@H](C)[C@H](N)C(=O)O [Isoleucine]
VAF ([1]; person two, serum): 8.514
Follow-up Nutrient Level [2, 7]: 144 nmol/mL
Actual Nutrient Value (ANV) ([2]; person three, serum): 26.2 nmol/mL
Post-test biomarker level ([2]; person two, serum, after ATB): 44 nmol/mL
Follow-up Biomarker level [2, 8]: 149 nmol/mL
Pre-test biomarker level ([2]; person two, serum): 14.2 nmol/mL

VAF ([1]; person two, serum): 0.9
Post-test biomarker level ([2]; female, human, in vivo): 67 nmol/mL
Follow-up Biomarker level [2, 8]: 232 nmol/mL
Pre-test biomarker level ([2]; person two, serum): 58 nmol/mL
Compound: N=C(N)NCCC[C@H](N)C(=O)O [L-Arginine]

Compound: CC(C)C[C@H](N)C(=O)O [L-Leucine]
VAF ([1]; person one, serum): 5.429
Post-test biomarker level ([2]; person one, serum, after ATB): 101 nmol/m
Follow-up Biomarker level [2, 6]: 222 nmol/m
Pre-test biomarker level ([2]; person one, serum): 82 nmol/m

Compound: CC(C)[C@H](N)C(=O)O [L-Valine]
VAF ([1]; person one, serum): 8.75
Post-test biomarker level ([2]; person one, serum, after ATB): 4.7e+10 nmol/mL
Follow-up Biomarker level [2, 6]: 322 nmol/mL
Pre-test biomarker level ([2]; person one, serum): 12 nmol/mL

Compound: CC(C)C[C@H](N)C(=O)O [Leucine]
Follow-up Nutrient Level [2, 7]: 225 nmol/m
Actual Nutrient Value (ANV) ([2]; person three, serum): 85 nmol/m

Compound: [24Mg] [Magnesium, Mg 24]
UTL ([3]; upper tolerable limit): 350 mg/day

Compound: [Mg] [Magnesium]
VAF ([1]; person one, serum): 0.012
Post-test biomarker level ([2]; person one, serum, after ATB): 17 µg/mL
Follow-up Biomarker level [2, 6]: 25.2 µg/mL
Pre-test biomarker level ([2]; person one, serum): 5 µg/mL
UTL ([3]; Table 18, person one): 350 mg/day
